Data set [1] has as its system thrombocyte aggregation in the platelet-rich plasma of healthy human donors. The data set can be described thus: Born test; collagen aggregation. Particulars: for inhibition at 0.1 µM: 10^-^7 mol/liter; for 50% diminution of aggregation: times lower concentration than compound N: vs compound N (acetylsalicylic acid). The class given is cell-based. The protocol:
b. […] The rate of decline of the optical density of platelet suspensions was measured and recorded photometrically after the addition of commercial collagen. From the angle of inclination of the density curve, the rate of aggregation was estimated. The optical density was taken at the point on the curve where most light was transmitted. The amount of collagen was chosen such that an irreversible control curve was obtained. The results were expressed in terms of the optical density and represent the percentage change in light transmission (= % diminution of the aggregation) caused by the test compound compared with the untreated control.

Data set [2] is described as follows: Acute toxicity in the rat, oral. The class given is in vivo. Particulars: in vivo, po, per os, male and female FW 49-rats, within 14 days. The protocol:
The test compound was administered in the form of a trituration in tylose.
The calculation of the LD50 values was effected, to the extent possible, according to the method of Litchfield and Wilcoxon, based on the percentage of animals which died within 14 days after administration of the different doses.

Data set [3] deals with kaolin-induced edema of the hind paw of the rat. Nature of the data set: Kaolin edema of the hind paw of the rat. In kind it is in vivo. Particulars: per os, 30 minutes before edema, 35% reduction of swelling at 5 hours. The protocol:
(§1) Compound A and known compound B were tested to determine their actue antiexsudative effect on the kaolin-induced edema and the carrageenin-induced edema of the hind paw of the rat and their acute toxicity after oral administration in rats.
a. Kaolin edema of the hind paw of the rat:
(§2) The kaolin edema was induced according to the method of Hillebrecht [Arzneimittel-Forsch. 4, 607 (1954] by subplantar injection of 0.05 ml of a 10% suspension of kaolin in an aqueous 0.85% sodium chloride solution. Measurement of the thickness of the paws was effected using the technique of Doepfner and Cerletti [Int. Arch. Allergy Immunol. 12, 89 (1958)]. The test compound was administered perorally by means of an esophageal tube to male FW 49-rats having an average body weight of 120 to 150 gm 30 minutes before inducing the edema. 5 hours after the provocation of the edema, the average size of the swelling in the rats treated with the test compound was compared with the average size of the swelling in the control animals treated by a dummy procedure. By graphical extrapolation, the dose leading to a 35% reduction of the swelling (ED35) was calculated from the percentage reduction in the size of the swelling caused by the administration of different doses.

Data set [4] deals with carrageenin-induced edema of the hind paw of the rat. Nature of the data set: Carrageenin edema of the back paw of the rat. The class given is in vivo. Particulars: per os, 60 minutes before edema, swelling at 3 hours. The protocol: as §1
b. Carrageenin edema of the back paw of the rat:
(§3) The provocation of the carrageenin edema was effected according to the method of Winter et al [Proc. Soc. exp. Biol. Med. 111, 544 (1962)] by subplantar injection of 0.05 ml of a 1% solution of carrageenin in an aqueous 0.85% solution of sodium chloride. The test compound was administered 60 minutes before the provocation of the edema.
(§4) For the calculation of the reductive effect on the edema, the size of the swelling was measured 3 hours after the provocation of the edema. All the other details were the same as described above in the case of the kaolin edema.
(In the carrageenan paw model, swelling and tenderness develop within hours.)

In data set [5] the test system is kaolin- and carrageenin-induced edemas. Nature of the data set: Kaolin and carrageenin edema combined: average ED35 and therapeutic ratio LD50/ED35. In kind it is in vivo. The protocol: as §2, §3, §4
The therapeutic index (a measure of the therapeutic usefulness) was calculated as the quotient of the oral LD50 value and the ED35 value derived from the tests to determine the antiexsudative activity against kaolin- and carrageenininduced edemas.

Data set [6] relates to adjuvant arthritis in the rat. Nature of the data set: Adjuvant arthritis in the rat. The class given is in vivo. Particulars: for ED50: po, 504 h, per os, once a day for 20 days, paw volume on 21st day, read-out: Adjuvant arthritis in the rat ED50 per os (average value of primary and secondary reaction). The protocol:
d. Adjuvant arthritis in the rat: The adjuvant arthritis tests in rats were carried out according to the method of Rosenthale and Nagra [Proc. Soc. exp. Biol. 125, 149 (1967)]. […] The test compound was administered once a day, starting with the day of the M. butyricum-injection, for a period of 20 days by means of an esophageal tube. […] An ED50 was determined graphically from the reduction of the swelling caused by the administration of different doses.

Data set [7] deals with platelet stickiness in human citrate blood. The data set can be described thus: Morris test (platelet stickiness, retention on glass beads). In kind it is cell-based. The protocol: The principle of the Morris test is described in "Stoffwechsel- and Membranpermeabilitat von Erythrozyten und Thrombozyten, I. Int.
1 ml of human citrate blood was pipetted into each of a number of small test tubes, the test compound was added in the desired concentrations, and the tubes were incubated at 37° C for 10 minutes. 2 gm each of glass beads (about 100 mesh) were added to half of the tubes. The tubes, stoppered by means of a plastic plug, were attached to a vertical wheel and rotated for 45 seconds end-over-end. The same tubes were then left to stand at ambient temperature for a further hour, after which time a sedimentation of erythrocytes and glass beads had taken place. 0.01 ml of the supernatant plasma was removed and diluted with 1:800 celloscope solution. The platelet count was read in a celloscope. The percentage of the thrombocytes retained in the sediment (adhering to the glass beads or aggregating) was calculated from the difference of the thrombocyte counts with and without glass contact.
The results were expressed in terms of the percentage reduction in the stickiness compared with the control (without addition of test compound).

The mark [8] stands for this setting: Homo sapiens, 10^-^4 mol/liter, read-out: Born test (% diminution of the aggregation).
Where [9] appears, read: Homo sapiens, 10^-^5 mol/liter, read-out: Born test (% diminution of the aggregation).
The mark [10] stands for this setting: Homo sapiens, 10^-^6 mol/liter, read-out: Born test (% diminution of the aggregation).
Setting [11] is: Homo sapiens, read-out: Born test (% diminution of the aggregation).

Structures can show the parent of a compound that is named as a salt. Where two headings read alike, the source gives them in different places.

As to `CCc1nc(NC(=O)C2=C(O)c3ccc4ccccc4c3S(=O)(=O)N2C)sc1C` [M, N-(4-Ethyl-5-methyl-2-thiazolyl)-4-hydroxy-2-methyl-2H-naphtho[2,1-e]-1,2-thiazine-3-carboxamide-1,1-dioxide], the inhibition at 100 µM in data set [1] (setting [8]) is 94%. In data set [1] (setting [9]), the inhibition at 10 µM came out at 91%. In addition, in data set [1] (setting [10]), the inhibition at 1 µM turned out to be 79%. Moreover, the inhibition at 0.1 µM in data set [1] (setting [11]) was 24%. Further, in data set [1], the “50% diminution of aggregation: times lower concentration than compound N” value was “at least 100 times lower”.
With `Cc1cnc(NC(=O)C2=C(O)c3ccc4ccccc4c3S(=O)(=O)N2C)s1` [K, 4-Hydroxy-2-methyl-N-(5-methyl-2-thiazolyl)-2H-naphtho[2,1-e]-1,2-thiazine-3-carboxamide-1,1-dioxide], in data set [1] (setting [8]), the inhibition at 100 µM is 89%. Further, the inhibition at 10 µM in data set [1] (setting [9]) worked out at 97%. The inhibition at 1 µM in data set [1] (setting [10]) came out at 66%. Moreover, the “50% diminution of aggregation: times lower concentration than compound N” value in data set [1] is listed as “at least 20 times lower”.
The term LD50 denotes the dose at which mortality reaches 50%. Lower therefore signals a more toxic substance. `COc1ccc2c(c1)c(CC(=O)O)c(C)n2C(=O)c1ccc(Cl)cc1` [B, indomethacin, reference compound]: the median lethal dose (LD50) at 336 h in data set [2] stood at 25.7 mg/kg. Also, the ED35 worked out at 2.7 mg/kg in data set [3]; 2.9 mg/kg in data set [4]; 2.8 mg/kg in data set [5] (Rattus norvegicus, read-out: Average value ED35). The “Therapeutic ratio: ratio of toxic and anti-exsudative activity LD50 / ED35” value in data set [5] (oral LD50 / average ED35, rat) was 9.2.
Broadly, the ED50 is the dose that gives a 50% effect, or the effect in half of the subjects. Regarding `CCCCC1C(=O)N(c2ccccc2)N(c2ccccc2)C1=O` [D, phenylbutazone, reference compound], the 50% effective dose (ED50) in data set [6] was roughly 40 mg/kg.
On to `Cc1nc(NC(=O)C2=C(O)c3ccc4ccccc4c3S(=O)(=O)N2C)sc1C` [L, N-(4,5-Dimethyl-2-thiazolyl)-4-hydroxy-2-methyl-2H-naphtho[2,1-e]-1,2-thiazine-3-carboxamide-1,1-dioxide], for which the inhibition at 100 µM in data set [1] (setting [8]) worked out at 91%. For the same molecule, the inhibition at 10 µM in data set [1] (setting [9]) was 95%. Moreover, the inhibition at 1 µM in data set [1] (setting [10]) amounted to 88%. For the same molecule, the inhibition at 0.1 µM in data set [1] (setting [11]) was 15%. In addition, the “50% diminution of aggregation: times lower concentration than compound N” value in data set [1] was “at least 100 times lower”.
Turning to `CN1C(C(=O)Nc2cncc(Cl)n2)=C(O)c2ccc3ccccc3c2S1(=O)=O` [I, N-(6-Chloro-2-pyrazinyl)-4-hydroxy-2-methyl-2H-naphtho[2,1-e]-1,2-thiazine-3-carboxamide-1,1-dioxide], the inhibition at 10 µM in data set [1] (setting [9]) was 91%. The inhibition at 1 µM in data set [1] (setting [10]) is 91%. The inhibition at 0.1 µM in data set [1] (setting [11]) is 22%. For the same molecule, the “50% diminution of aggregation: times lower concentration than compound N” value in data set [1] is on record as “at least 100 times lower”.
Regarding `CC(=O)Oc1ccccc1C(=O)O` [N, acetylsalicylic acid, reference compound], in data set [1] (setting [11]), the inhibition at 10 µM was 13% and the inhibition at 30 µM is 45%. In addition, the IC50 in data set [1] (Homo sapiens, read-out: concentration causing a 50% diminution of aggregation) was roughly 40 µM.
As to `CN1C(C(=O)Nc2ccccn2)=C(O)c2ccc3ccccc3c2S1(=O)=O` [C, 4-Hydroxy-2-methyl-N-(2-pyridyl)-2H-naphtho[2,1-e]-1,2-thiazine-3-carboxamide-1,1-dioxide], in data set [6], the “activity against adjuvant arthritis (in words)” value was “surprisingly strong activity” and the median effective dose (ED50) is roughly 4 mg/kg. Further, the “activity against adjuvant arthritis compared with phenylbutazone (D) (in words)” value in data set [6] (vs phenylbutazone (D)) is recorded as “far superior”.
Regarding `Cc1ccnc(NC(=O)C2=C(O)c3ccc4ccccc4c3S(=O)(=O)N2C)c1` [H, Sodium salt of 4-hydroxy-2-methyl-N-(4-methyl-2-pyridyl)-2H-naphtho[2,1-e]-1,2-thiazine-3-carboxamide-1,1-dioxide], the inhibition at 100 µM in data set [1] (setting [8]) was determined as 95%. The inhibition at 10 µM in data set [1] (setting [9]) worked out at 91%. The inhibition at 1 µM in data set [1] (setting [10]) came to 82%. The “50% diminution of aggregation: times lower concentration than compound N” value in data set [1] is given as “at least 100 times lower”.
On to `Cc1csc(NC(=O)C2=C(O)c3ccc4ccccc4c3S(=O)(=O)N2C)n1` [J, 4-Hydroxy-2-methyl-N-(4-methyl-2-thiazolyl)-2H-naphtho[2,1-e]-1,2-thiazine-3-carboxamide-1,1-dioxide], for which the inhibition at 100 µM in data set [1] (setting [8]) worked out at 92%. Besides, the inhibition at 10 µM in data set [1] (setting [9]) came to 89%. In data set [1] (setting [10]), the inhibition at 1 µM was 88%. Further, the inhibition at 0.1 µM in data set [1] (setting [11]) is 4%. Besides, the “50% diminution of aggregation: times lower concentration than compound N” value in data set [1] is given as “at least 100 times lower”.
`CN1C(C(=O)Nc2cccc(Cl)c2)=C(O)c2ccc3ccccc3c2S1(=O)=O` [F, N-(3-Chloro-phenyl)-4-hydroxy-2-methyl-2H-naphtho[2,1-e]-1,2-thiazine-3-carboxamide-1,1-dioxide]: the inhibition at 100 µM in data set [1] (setting [8]) was 96%. The inhibition at 10 µM in data set [1] (setting [9]) was 81%. Further, the inhibition at 1 µM in data set [1] (setting [10]) is 35%. For the same molecule, the “50% diminution of aggregation: times lower concentration than compound N” value in data set [1] was “at least 20 times lower”.
Taken in the same sequence, the figures for `Cc1cccc(NC(=O)C2=C(O)c3ccc4ccccc4c3S(=O)(=O)N2C)c1` [G, 4-Hydroxy-2-methyl-N-(3-tolyl)-2H-naphtho[2,1-e]-1,2-thiazine-3-carboxamide-1,1-dioxide] were 97%, 78%, 65% and “at least 20 times lower”.
With `CN1C(C(=O)Nc2nccs2)=C(O)c2ccccc2S1(=O)=O` [E, 4-hydroxy-2-methyl-N-(2-thiazolyl)-2H-1,2-benzothiazine-3-carboxamide-1,1-dioxide, reference compound], in data set [7] (Platelet, 10 min, 10^-^4 mol/liter, human citrate blood, read-out: Morris test (percentage reduction in the stickiness)), the inhibition at 100 µM came out at 3%. Also, the “inhibition of the stickiness in the Morris test in comparison with compound A (in words)” value in data set [7] (vs compound A) was “practically ineffective”. For the same molecule, in data set [1] (setting [11]), the inhibition at 1 µM was found to be 33%, the inhibition at 10 µM stood at 91% and the inhibition at 100 µM is 92%. The median lethal dose (LD50) at 336 h in data set [2] is 136 mg/kg.

The values are drawn from patent publication US3992535A, “4-Hydroxy-2H-naphtho[2,1-e]-1,2-thiazine-3-carboxamide-1,1-dioxides and salts thereof” (priority 1974, dated 1976).
